Data as given in EP1561465A2, “Methods of use of fluoroquinolone compounds against bacteria” (LG Life Sciences, Ltd., priority 1999, dated 2001).
Values after ≈ are worked out from the molar mass of the structure shown. Read-outs that look alike come from different tables or passages of the source.

Key:
Assay type in all cases: cell-based
Enterobacter aerogenes = assay: MIC by NCCLS broth microdilution, 1100 Japanese clinical isolates 1997-1998; settings: Enterobacter aerogenes (n=35)
Hafnia alvei [1] = assay: MIC by agar dilution (NCCLS M7-A4), 288 enteropathogenic isolates, eight quinolones; settings: Hafnia alvei (n = 32)
Streptococcus pneumoniae [2] = assay: MIC by NCCLS reference broth microdilution, 450 respiratory tract pathogens; settings: Streptococcus pneumoniae
E. coli = assay: microbe, parasite or virus in culture; settings: Escherichia coli
P. aeruginosa = assay: MIC by two-fold serial agar dilution, quinolone-resistant strains; settings: Pseudomonas aeruginosa
Streptococcus pneumoniae [3] = assay: MIC by two-fold serial agar dilution, Sensitivity Disk agar-N (Kitasato isolates); settings: Streptococcus pneumoniae; for MIC90: read-out: MIC90; for MIC: read-out: MIC Range; for MIC50: read-out: MIC50
Hafnia alvei [4] = assay: MIC by agar dilution (NCCLS M7-A4), 288 enteropathogenic isolates, gemifloxacin and 15 other antimicrobials; settings: Hafnia alvei N= 32
Streptococcus pneumoniae [5] = assay: MIC by NCCLS broth microdilution, 1100 Japanese clinical isolates 1997-1998; settings: for MIC50 / MIC90 / MIC: Streptococcus pneumoniae; for MIC50: read-out: MIC50; for MIC90: read-out: MIC90; for MIC: Streptococcus pneumoniae quinolone resistant
[6] = test system: Mycobacterium tuberculosis (MTB); assay: MIC by proportions method (NCCLS M24-T, 1995), 82 MTB strains; settings: Mycobacterium tuberculosis; 82 MTB strains
Escherichia coli = assay: MIC by NCCLS broth microdilution, 1100 Japanese clinical isolates 1997-1998; settings: for MIC50 / MIC90: Escherichia coli
Shigella spp. [7] = assay: MIC by agar dilution (NCCLS M7-A4), 288 enteropathogenic isolates, gemifloxacin and 15 other antimicrobials; settings: Shigella spp. N= 21
How it was run: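 Agar dilution with ~10^4 cfu/spot inoculum; plates incubated aerobically at 35 °C for 24 h, except C. jejuni, held microaerophilically for 48 h. MIC taken as lowest antibiotic concentration with no visible growth.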

Shigella spp. [8] = assay: MIC by agar dilution (NCCLS M7-A4), 288 enteropathogenic isolates, eight quinolones; settings: Shigella spp. (n = 21)
Streptococcus pneumoniae [9] = assay: MIC by broth microdilution (NCCLS), dried MicroScan panels, clinical isolates 1998-1999; settings: for MIC90: Streptococcus pneumoniae
Enterobacter cloacae = assay: MIC by NCCLS broth microdilution, 1100 Japanese clinical isolates 1997-1998; settings: Enterobacter cloacae (n=40)
Klebsiella pneumoniae = assay: as above
[10] = Streptococcus pneumoniae (n = 100)
[11] = erythromycin resistant M phenotype (n = 16)
[12] = erythromycin resistant MLSB phenotype (n = 16)
[13] = penicillin intermediate (n = 16)
[14] = penicillin susceptible (n = 20)
[15] = 24 h, read-out: MIC (mg/L) Range
[16] = Streptococcus pneumoniae amoxicillin resistant (n=40)
[17] = Streptococcus pneumoniae amoxicillin susceptible (n=35)
[18] = Streptococcus pneumoniae erythromycin resistant (n=34)
[19] = Streptococcus pneumoniae erythromycin susceptible (n=11)
[20] = Escherichia coli ciprofloxacin resistant (n=5)
[21] = Escherichia coli ciprofloxacin susceptible (n=37)
[22] = Streptococcus pneumoniae (302 isolates)

C[C@H]1COc2c(N3CCN(C)CC3)c(F)cc3c(=O)c(C(=O)O)cn1c23 [Levofloxacin, levofloxacin]
MIC Range (Enterobacter aerogenes): 0.016 to 0.25 µg/mL | MIC50 (Enterobacter aerogenes; Klebsiella aerogenes): 0.032 µg/mL (≈ 0.0886 µM) | MIC90 (Enterobacter aerogenes; Klebsiella aerogenes): 0.063 µg/mL (≈ 0.174 µM) | % Susceptible (Hafnia alvei [1]): 100% | MIC50 (Hafnia alvei [1]): 0.03 µg/mL (≈ 0.083 µM) | MIC90 (Hafnia alvei [1]): 0.03 µg/mL (≈ 0.083 µM) | MIC Range (Hafnia alvei [1]): ≤0.015 to 0.03 µg/mL | MIC (Streptococcus pneumoniae [2]; [10]): 0.25 to 2 µg/mL (≈ 0.692 to 5.53 µM) | MIC50 (Streptococcus pneumoniae [2]; [10]): 1 µg/mL (≈ 2.77 µM) | MIC90 (Streptococcus pneumoniae [2]; [10]): 1 µg/mL (≈ 2.77 µM) | MIC (Streptococcus pneumoniae [2]; [11]): 1 to 2 µg/mL (≈ 2.77 to 5.53 µM) | MIC50 (Streptococcus pneumoniae [2]; [11]): 1 µg/mL (≈ 2.77 µM) | MIC90 (Streptococcus pneumoniae [2]; [11]): 1 µg/mL (≈ 2.77 µM) | MIC (Streptococcus pneumoniae [2]; [12]): 0.5 to 2 µg/mL (≈ 1.38 to 5.53 µM) | MIC50 (Streptococcus pneumoniae [2]; [12]): 1 µg/mL (≈ 2.77 µM) | MIC90 (Streptococcus pneumoniae [2]; [12]): 1 µg/mL (≈ 2.77 µM) | MIC (Streptococcus pneumoniae [2]; multi-drug resistant (n = 16)): 0.5 to 1 µg/mL (≈ 1.38 to 2.77 µM) | MIC50 (Streptococcus pneumoniae [2]; multi-drug resistant (n = 16)): 1 µg/mL (≈ 2.77 µM) | MIC90 (Streptococcus pneumoniae [2]; multi-drug resistant (n = 16)): 1 µg/mL (≈ 2.77 µM) | MIC (Streptococcus pneumoniae [2]; [13]): 0.5 to 1 µg/mL (≈ 1.38 to 2.77 µM) | MIC50 (Streptococcus pneumoniae [2]; [13]): 1 µg/mL (≈ 2.77 µM) | MIC90 (Streptococcus pneumoniae [2]; [13]): 1 µg/mL (≈ 2.77 µM) | MIC (Streptococcus pneumoniae [2]; penicillin resistant (n = 18)): 0.5 to 2 µg/mL (≈ 1.38 to 5.53 µM) | MIC50 (Streptococcus pneumoniae [2]; penicillin resistant (n = 18)): 0.5 µg/mL (≈ 1.38 µM) | MIC90 (Streptococcus pneumoniae [2]; penicillin resistant (n = 18)): 1 µg/mL (≈ 2.77 µM) | MIC (Streptococcus pneumoniae [2]; [14]): 0.25 to 1 µg/mL (≈ 0.692 to 2.77 µM) | MIC50 (Streptococcus pneumoniae [2]; [14]): 1 µg/mL (≈ 2.77 µM) | MIC90 (Streptococcus pneumoniae [2]; [14]): 1 µg/mL (≈ 2.77 µM) | MIC50 (E. coli; E. coli (13 strains), quinolone-resistant, read-out: MIC50): 0.125 µg/mL (≈ 0.346 µM) | MIC90 (E. coli; E. coli (13 strains), quinolone-resistant, read-out: MIC90): 1 µg/mL (≈ 2.77 µM) | MIC (E. coli; E. coli KU1029, mutant type SP (spontaneous mutant in the DNA gyrase)): 0.063 µg/mL (≈ 0.174 µM) | MIC (E. coli; E. coli KU1030, mutant type SP): 0.125 µg/mL (≈ 0.346 µM) | MIC (E. coli; E. coli KU1031, mutant type SP): 0.063 µg/mL (≈ 0.174 µM) | MIC (E. coli; E. coli KU1032, mutant type SP): 0.25 µg/mL (≈ 0.692 µM) | MIC (E. coli; E. coli KU1033, mutant type SP): 0.063 µg/mL (≈ 0.174 µM) | MIC (E. coli; E. coli KU1034, mutant type GA (DNA gyrase A)): 1 µg/mL (≈ 2.77 µM) | MIC (E. coli; E. coli KU1035, mutant type GA (DNA gyrase A)): 1 µg/mL (≈ 2.77 µM) | MIC (E. coli; E. coli KU1036, mutant type GB (DNA gyrase B)): 0.125 µg/mL (≈ 0.346 µM) | MIC (E. coli; E. coli KU1038, mutant type SP): 0.125 µg/mL (≈ 0.346 µM) | MIC (E. coli; E. coli KU1039, mutant type SP): 0.25 µg/mL (≈ 0.692 µM) | MIC (E. coli; E. coli KU1040, mutant type SP): 0.031 µg/mL (≈ 0.0858 µM) | MIC (E. coli; E. coli KU1041, mutant type SP): 0.5 µg/mL (≈ 1.38 µM) | MIC (E. coli; E. coli KU1042, mutant type SP): 0.063 µg/mL (≈ 0.174 µM) | MIC (P. aeruginosa): 2 µg/mL (≈ 5.53 µM) | MIC90 (Streptococcus pneumoniae [3]; 18 h, Ciprofloxacin-resistant (21), ciprofloxacin MIC ≥8 µg/ml): 16 µg/mL (≈ 44.3 µM) | MIC (Streptococcus pneumoniae [3]; 18 h, Ciprofloxacin-resistant (21)): 2 to 32 µg/mL (≈ 5.53 to 88.6 µM) | MIC (Streptococcus pneumoniae [3]; 18 h, Ciprofloxacin-susceptible (94)): 0.25 to 2 µg/mL (≈ 0.692 to 5.53 µM) | MIC (Streptococcus pneumoniae [3]; 18 h, Erythromycin-resistant (37)): 0.5 to 16 µg/mL (≈ 1.38 to 44.3 µM) | MIC (Streptococcus pneumoniae [3]; 18 h, Minocycline-resistant (37)): 0.25 to 16 µg/mL (≈ 0.692 to 44.3 µM) | MIC (Streptococcus pneumoniae [3]; 18 h, Penicillin-resistant (19)): 0.5 to 8 µg/mL (≈ 1.38 to 22.1 µM) | MIC50 (Streptococcus pneumoniae [3]; Ciprofloxacin-resistant (21)): 16 µg/mL (≈ 44.3 µM) | MIC50 (Streptococcus pneumoniae [3]; Ciprofloxacin-susceptible (94)): 0.5 µg/mL (≈ 1.38 µM) | MIC90 (Streptococcus pneumoniae [3]; Ciprofloxacin-susceptible (94)): 1 µg/mL (≈ 2.77 µM) | MIC50 (Streptococcus pneumoniae [3]; Erythromycin-resistant (37)): 1 µg/mL (≈ 2.77 µM) | MIC90 (Streptococcus pneumoniae [3]; Erythromycin-resistant (37)): 2 µg/mL (≈ 5.53 µM) | MIC50 (Streptococcus pneumoniae [3]; Minocycline-resistant (37)): 1 µg/mL (≈ 2.77 µM) | MIC90 (Streptococcus pneumoniae [3]; Minocycline-resistant (37)): 2 µg/mL (≈ 5.53 µM) | MIC50 (Streptococcus pneumoniae [3]; Penicillin-resistant (19)): 0.5 µg/mL (≈ 1.38 µM) | MIC90 (Streptococcus pneumoniae [3]; Penicillin-resistant (19)): 1 µg/mL (≈ 2.77 µM) | MIC (Hafnia alvei [4]; [15]): 0.015 to 0.03 mg/L (≈ 0.0415 to 0.083 µM) | MIC (Hafnia alvei [4]; read-out: MIC (mg/L) 50%): 0.03 mg/L (≈ 0.083 µM) | MIC (Hafnia alvei [4]; read-out: MIC (mg/L) 90%): 0.03 mg/L (≈ 0.083 µM) | MIC Range (Streptococcus pneumoniae [5]; [16]): 0.5 to 8 µg/mL | MIC Range (Streptococcus pneumoniae [5]; [17]): 0.063 to 8 µg/mL | MIC Range (Streptococcus pneumoniae [5]; [18]): 0.063 to 8 µg/mL | MIC Range (Streptococcus pneumoniae [5]; [19]): 0.5 to 1 µg/mL | MIC50 (Streptococcus pneumoniae [5]; [16]): 1 µg/mL (≈ 2.77 µM) | MIC90 (Streptococcus pneumoniae [5]; [16]): 1 µg/mL (≈ 2.77 µM) | MIC50 (Streptococcus pneumoniae [5]; [17]): 1 µg/mL (≈ 2.77 µM) | MIC90 (Streptococcus pneumoniae [5]; [17]): 1 µg/mL (≈ 2.77 µM) | MIC50 (Streptococcus pneumoniae [5]; [18]): 1 µg/mL (≈ 2.77 µM) | MIC90 (Streptococcus pneumoniae [5]; [18]): 1 µg/mL (≈ 2.77 µM) | MIC50 (Streptococcus pneumoniae [5]; [19]): 1 µg/mL (≈ 2.77 µM) | MIC90 (Streptococcus pneumoniae [5]; [19]): 1 µg/mL (≈ 2.77 µM) | MIC (Streptococcus pneumoniae [5]; strain TMS1): 1 µg/mL (≈ 2.77 µM) | MIC (Streptococcus pneumoniae [5]; strain TMS2): 16 µg/mL (≈ 44.3 µM) | MIC90 [6]: 1 µg/mL (≈ 2.77 µM) | MIC Range (Escherichia coli; [20]): 4 to 128 µg/mL | MIC Range (Escherichia coli; [21]): ≤0.008 to 0.25 µg/mL | MIC50 (Escherichia coli; [20]): 16 µg/mL (≈ 44.3 µM) | MIC90 (Escherichia coli; Escherichia coli ciprofloxacin resistant (n=5), values marked *: MIC80 value): 16 µg/mL (≈ 44.3 µM) | MIC50 (Escherichia coli; [21]): 0.032 µg/mL (≈ 0.0886 µM) | MIC90 (Escherichia coli; [21]): 0.063 µg/mL (≈ 0.174 µM) | MIC (Shigella spp. [7]; [15]): 0.015 to 0.03 mg/L (≈ 0.0415 to 0.083 µM) | MIC (Shigella spp. [7]; read-out: MIC (mg/L) 50%): 0.03 mg/L (≈ 0.083 µM) | MIC (Shigella spp. [7]; read-out: MIC (mg/L) 90%): 0.03 mg/L (≈ 0.083 µM) | % Susceptible (Shigella spp. [8]): 100% | MIC50 (Shigella spp. [8]): 0.03 µg/mL (≈ 0.083 µM) | MIC90 (Shigella spp. [8]): 0.03 µg/mL (≈ 0.083 µM) | MIC50 (Streptococcus pneumoniae [9]; [22]): 1 µg/mL (≈ 2.77 µM) | MIC Range (Streptococcus pneumoniae [9]; [22]): ≤0.015 to 2 µg/mL | MIC90 (Streptococcus pneumoniae [9]; Erythromycin-resistant (86)): 1 µg/mL (≈ 2.77 µM) | MIC90 (Streptococcus pneumoniae [9]; Erythromycin-sensitive (216)): 2 µg/mL (≈ 5.53 µM) | MIC90 (Streptococcus pneumoniae [9]; Penicillin-intermediate (124)): 1 µg/mL (≈ 2.77 µM) | MIC90 (Streptococcus pneumoniae [9]; Penicillin-resistant (80)): 1 µg/mL (≈ 2.77 µM) | MIC90 (Streptococcus pneumoniae [9]; Penicillin-sensitive (98)): 1 µg/mL (≈ 2.77 µM) | MIC90 (Streptococcus pneumoniae [9]; [22]): 1 µg/mL (≈ 2.77 µM) | MIC50 (Enterobacter cloacae): 0.032 µg/mL (≈ 0.0886 µM) | MIC90 (Enterobacter cloacae): 0.5 µg/mL (≈ 1.38 µM) | MIC Range (Enterobacter cloacae): 0.016 to 1 µg/mL | MIC90 (Klebsiella pneumoniae; Klebsiella pneumoniae): 0.125 µg/mL (≈ 0.346 µM) | MIC50 (Klebsiella pneumoniae; Klebsiella pneumoniae (n=35)): 0.032 µg/mL (≈ 0.0886 µM) | MIC Range (Klebsiella pneumoniae; Klebsiella pneumoniae (n=35)): 0.016 to 4 µg/mL
